Assay results taken from the supplement of paper PMC12613149.

Key:
[1] = reversed-phase LC retention time (C18, 15 min MeOH gradient); higher = more hydrophobic / later elution
Description: (§1)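 Reference mixture of environmental contaminants analysed by RP-LC (BEH C18, 50 °C; ESI+ with water/MeOH plus formic acid and ammonium formate, ESI- with ammonium bicarbonate) coupled to a timsTOF Pro 2 with trapped ion mobility in nitrogen (ramp/accumulation 100 ms). CCS was calibrated with Agilent tune mix (CCS compendium) and averaged over five injections at 0.5-500 ng/mL. The table reports the lowest-CCS (putative monomer) peak; retention times are on the same gradient.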

[2] = collision cross section (TIMS, N2 drift gas) of the primary ion; higher = larger gas-phase ion size
Description: as §1

[3] = ionization mode: ESI+, ion species: [M]+
[4] = ionization mode: ESI-, ion species: [M-H]-
[5] = ionization mode: ESI+, ion species: [M+H]+

Structure (SMILES) | reversed-phase LC retention time [1, 3] [min] | collision cross section [2, 3] [Å²] | reversed-phase LC retention time [1, 4] [min] | collision cross section [2, 4] [Å²] | reversed-phase LC retention time [1, 5] [min] | collision cross section [2, 5] [Å²]
CCCCCCCCCC[N+](C)(C)Cc1ccccc1 [Benzyldimethyldecylammonium] | 14.7 | 183.77 | – | – | – | –
N#Cc1cc(Br)c(O)c(Br)c1 [3,5-Dibromo-4-hydroxybenzonitrile] | – | – | 8.01 | 129.33 | – | –
CCNc1nc(NCC)nc(SC)n1 [Simetryn] | – | – | – | – | 11.6 | 149.02
CC(=O)c1cc(C(C)(C)C)c(O)c(C(C)(C)C)c1 [3,5-Di-tert-butyl-4'-hydroxyacetophenone] | – | – | 16.3 | 165.11 | – | –
CCCCCCCCCCCCCCOS(=O)(=O)O [Tetradecylsulfate] | – | – | 17.2 | 175.12 | – | –
C[C@H](O)C(=O)Nc1c(I)c(C(=O)NC(CO)CO)c(I)c(C(=O)NC(CO)CO)c1I [Iopamidol] | – | – | 3.71 | 206.33 | 5.52 | 216.64
CC(=O)CCCCn1c(=O)c2c(ncn2C)n(C)c1=O [Pentoxifylline] | – | – | – | – | 9.78 | 160.14
Oc1c(Br)cc(Br)cc1Br [2,4,6-Tribromophenol] | – | – | 12.8 | 133.11 | – | –
CNCCC(Oc1ccc(C(F)(F)F)cc1)c1ccccc1 (centres undefined) [Fluoxetine] | – | – | – | – | 13.4 | 177.66
CC(C)CC(C)(O)C#CC(C)(O)CC(C)C (centres undefined) [TMDD] | – | – | – | – | 16.4 | 168.69
CC(C)Oc1cccc(NC(=O)c2ccccc2C(F)(F)F)c1 [Flutolanil] | – | – | 14.7 | 176.16 | 14.3 | 173.43
CC(C)c1ccc(NC(=O)N(C)C)cc1 [Isoproturon] | – | – | – | – | 13 | 151.88
CCc1cccc(C)c1N(C(=O)C(=O)O)C(C)C(=O)O (centres undefined) | – | – | 7.53 | 159.41 | – | –
CCCCCCCCCC[N+](C)(C)CCCCCCCCCC [Didecyldimethylammonium] | 17.3 | 211.39 | – | – | – | –
c1ccc(/N=N/c2ccccc2)cc1 [Azobenzene] | – | – | – | – | 13.1 | 138.4
CC[C@H]1OC(=O)C[C@@H](O)[C@H](C)[C@@H](O[C@@H]2O[C@H](C)[C@@H](O[C@H]3C[C@@](C)(O)[C@@H](O)[C@H](C)O3)[C@H](N(C)C)[C@H]2O)[C@@H](CC=O)C[C@@H](C)C(=O)/C=C/C(C)=C/[C@@H]1CO[C@@H]1O[C@H](C)[C@@H](O)[C@@H](OC)[C@H]1OC [Tylosin] | – | – | 15.6 | 293.81 | 13 | 282.55
O=P(OCCCl)(OCCCl)OCCCl [Tris(2-chloroethyl)phosphate] | – | – | – | – | 11.7 | 150.93
COP(=O)(OC)C(O)C(Cl)(Cl)Cl (centres undefined) [Trichlorfon] | – | – | – | – | 9.07 | 138.18
CCNC(=O)C(C)Oc1cccc2ccccc12 (centres undefined) [Desethyl-napropamide] | – | – | – | – | 14 | 159.85
C#CC(C)(C)NC(=O)c1cc(Cl)cc(Cl)c1 [Propyzamide] | – | – | – | – | 14.2 | 158.35

Structure (SMILES) | reversed-phase LC retention time [1, 3] [min] | collision cross section [2, 3] [Å²] | reversed-phase LC retention time [1, 4] [min] | collision cross section [2, 4] [Å²] | reversed-phase LC retention time [1, 5] [min] | collision cross section [2, 5] [Å²]
Oc1cccc2[nH]nnc12 [4-Hydroxybenzotriazole] | – | – | – | – | 5.99 | 123.13
CC(=O)[C@H]1CC[C@H]2[C@@H]3C=CC4=CC(=O)CC[C@@]4(C)[C@@H]3CC[C@]12C [Dydrogesterone] | – | – | – | – | 15.1 | 177.44
CC1(C)CC(N(C=O)CCCCCCN(C=O)C2CC(C)(C)NC(C)(C)C2)CC(C)(C)N1 [Univul-4050H] | – | – | – | – | 7.4 | 226.35
CCC1(c2ccccc2)C(=O)NCNC1=O [Primidone] | – | – | – | – | 9.29 | 148.13
CC1CN(C2CCCCCCCCCCC2)CC(C)O1 (centres undefined) [Dodemorph] | – | – | – | – | 13.3 | 175.75
N#Cc1c(Cl)c(Cl)c(S(=O)(=O)O)c(C(N)=O)c1Cl [2-Amido-3,5,6-trichloro-4-cyanobenzenesulfonic acid] | – | – | 7.02 | 154.35 | – | –
CC(O)(CS(=O)(=O)c1ccc(F)cc1)C(=O)Nc1ccc(C#N)c(C(F)(F)F)c1 (centres undefined) [Bicalutamide] | – | – | 13.7 | 184.69 | 13.4 | 205.43
Cc1nccc2c1[nH]c1ccccc12 [Harman] | – | – | 13.4 | 135.7 | 8.86 | 136.39
CCOCN(C(=O)CCl)c1c(C)cccc1CC [Acetochlor] | – | – | – | – | 15 | 158.08
CCCCC(CC)COC(=O)c1ccc(N(C)C)cc1 (centres undefined) | – | – | – | – | 17.9 | 185.61
CC(C)(C)CC(C)(C)c1ccc(Nc2ccc(C(C)(C)CC(C)(C)C)cc2)cc1 [N,N-Bis(4-tert-octylphenyl)amine] | – | – | – | – | 20.2 | 220.04
CCCCCCCCCC(=O)N(C)C [N,N-Dimethyldecan-1-amide] | – | – | – | – | 16.1 | 159.08
NC(=NCCCCCCN=C(N)N=C(N)Nc1ccc(Cl)cc1)N=C(N)Nc1ccc(Cl)cc1 [Chlorohexidine] | – | – | – | – | 12.4 | 224.29
CC(C)(C)c1cc(-n2nc3ccccc3n2)c(O)c(C(C)(C)C)c1 [UV-320] | – | – | 20.9 | 193.86 | 19.7 | 188.24
CC(C)COP(=O)(OCC(C)C)OCC(C)C [Tri-isobutylphosphate] | – | – | – | – | 16.3 | 165.01
CCCC[N+](CCCC)(CCCC)CCCC [Tetrabutylammonium] | 11 | 167.79 | – | – | – | –
CCN(CC)C(=O)C(C)Oc1cccc2ccccc12 (centres undefined) [Napropamide] | – | – | – | – | 14.9 | 164.64
CC1(C)[C@@H](O)CC[C@]2(C)[C@H]3C(=O)C=C4[C@@H]5C[C@@](C)(C(=O)O)CC[C@]5(C)CC[C@@]4(C)[C@]3(C)CC[C@@H]12 [Enoxolone] | – | – | 16.6 | 224.72 | 17.5 | 216.71
C[C@H]1C[C@H]2[C@@H]3CCC4=CC(=O)C=C[C@]4(C)[C@@]3(Cl)[C@@H](O)C[C@]2(C)[C@@]1(O)C(=O)CO [Beclomethasone] | – | – | 13.6 | 194.28 | 13.3 | 192.43
COP(=O)(OC)OC=C(Cl)Cl [Dichlorvos] | – | – | – | – | 9.07 | 139.26

Structure (SMILES) | reversed-phase LC retention time [1, 3] [min] | collision cross section [2, 3] [Å²] | reversed-phase LC retention time [1, 4] [min] | collision cross section [2, 4] [Å²] | reversed-phase LC retention time [1, 5] [min] | collision cross section [2, 5] [Å²]
COc1ccc(-c2coc3cc(O)ccc3c2=O)cc1 [Formononetin] | – | – | 12.2 | 163.97 | 13.2 | 158.9
COc1cnc(OC)n2nc(NS(=O)(=O)c3c(OCC(F)F)cccc3C(F)(F)F)nc12 [Penoxsulam] | – | – | – | – | 12.3 | 196.63
CC(C)Oc1cc(-n2nc(C(C)(C)C)oc2=O)c(Cl)cc1Cl [Oxadiazone] | – | – | – | – | 16.9 | 182.66
CC(COc1ccc(Oc2ccccc2)cc1)Oc1ccccn1 (centres undefined) [Pyriproxyfen] | – | – | – | – | 16.9 | 184.89
CC(c1ccc(O)cc1)c1ccc(O)cc1 [Bisphenol E] | – | – | 12.7 | 156.4 | – | –
CCc1cccc(C)c1N(C(=O)CCl)C(C)COC (centres undefined) [Metolachlor] | – | – | – | – | 15.1 | 160.17
CN1CCN(C)C1=O [1,3-Dimethyl-2-imidazolidinone] | – | – | – | – | 6.07 | 116.95
O=C(O)c1ccccc1C(=O)OCc1ccccc1 [Monobenzyl phthalate] | – | – | 10.7 | 159.96 | 17.1 | 155.89
Oc1ccc2c(c1)C13CCCCC1(O)C(C2)N(CC1CCC1)CC3 (centres undefined) [Butorphanol] | – | – | 16.6 | 188.37 | – | –
CC(C)(C)c1cc([N+](=O)[O-])cc([N+](=O)[O-])c1O [Dinoterb] | – | – | 12.5 | 149.2 | – | –
Nc1cnn(-c2ccccc2)c(=O)c1Cl [4-Amino-5-chloro-1-phenyl-6-pyridazone] | – | – | 9.26 | 141.68 | 9.16 | 143.41
CCCCOP(=O)(O)OCCCC [Di-n-butyl phosphate] | – | – | 11.6 | 151.01 | – | –
C[N+](C)(C)CC1CO1 (centres undefined) [2,3-Epoxypropyltrimethylammonium] | 0.95 | 117.85 | – | – | – | –
O=S(=O)(O)c1cccc2ccc(O)cc12 [2-Naphthol-8-sulfonic acid] | – | – | 7.16 | 144.25 | – | –
Cc1cc(C(F)(C(F)(F)F)C(F)(F)F)ccc1NC(=O)c1cccc(I)c1C(=O)NC(C)(C)CS(C)(=O)=O [Flubendiamide] | – | – | 15.8 | 222.96 | – | –
CC1OC(OCC2OC(Oc3c(-c4ccc(O)c(O)c4)oc4cc(O)cc(O)c4c3=O)C(O)C(O)C2O)C(O)C(O)C1O (centres undefined) [Rutin] | – | – | 8.1 | 232.48 | 9.72 | 233.31
CC(C)Nc1nc(N)nc(Cl)n1 [Atrazine desethyl] | – | – | – | – | 9.74 | 138.83
COc1cccc([C@@]2(O)CCCC[C@@H]2CN(C)C)c1 [Tramadol] | – | – | – | – | 9.25 | 160.98
CCCCCCCCCCCCCCN(C)C [N,N-Dimethyltetradecylamine] | – | – | – | – | 16.6 | 179.2
CNC(=O)CSP(=S)(OC)OC [Dimethoate] | – | – | – | – | 9.08 | 141.81
